Values quoted from earlier work, collected in patent US20210198629A1, “COMPOSITIONS AND METHODS FOR INCREASING BEIGING OF WHITE ADIPOSE TISSUE” (University of Georgia Research Foundation, Inc., priority 2018, published 2021).
Like-named read-outs stand apart in the source and are kept apart here.

Tests used:
Ucp1 = settings: cited from earlier work
BRD9 = target: T1, BRD9 (Homo sapiens, UniProt Q9H8M2); settings: cited from earlier work
T1 sequence (Q9H8M2 1-597): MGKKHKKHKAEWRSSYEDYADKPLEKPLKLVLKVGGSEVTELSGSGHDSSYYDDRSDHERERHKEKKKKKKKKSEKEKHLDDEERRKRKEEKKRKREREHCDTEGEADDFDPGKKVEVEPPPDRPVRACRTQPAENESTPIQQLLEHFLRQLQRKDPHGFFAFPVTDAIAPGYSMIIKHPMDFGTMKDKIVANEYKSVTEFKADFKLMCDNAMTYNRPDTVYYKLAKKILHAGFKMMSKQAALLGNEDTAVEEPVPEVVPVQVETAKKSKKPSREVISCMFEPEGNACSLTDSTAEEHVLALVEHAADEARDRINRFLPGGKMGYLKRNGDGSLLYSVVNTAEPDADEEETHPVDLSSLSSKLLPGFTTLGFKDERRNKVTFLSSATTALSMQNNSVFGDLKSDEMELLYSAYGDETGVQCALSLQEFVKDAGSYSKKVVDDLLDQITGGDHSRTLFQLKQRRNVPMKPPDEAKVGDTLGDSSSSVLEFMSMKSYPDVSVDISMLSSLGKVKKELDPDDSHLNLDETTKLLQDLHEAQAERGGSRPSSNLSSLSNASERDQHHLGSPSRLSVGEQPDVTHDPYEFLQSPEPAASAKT

rhabdoid tumor cells = settings: combinatorial treatment with cytostatic compounds (e.g., cisplatin); cited from earlier work
[1] = tested on: EGFR mutant PC9 cancer cells; settings: cited from earlier work

## C=C(c1ccc(C(=O)O)cc1)c1cc2c(cc1C)C(C)(C)CCC2(C)C [Bexarotene]
Ucp1; oral administration 50 mg/kg/d, for 28 days, only in subcutaneous WATs
  WAT beiging, increase of Ucp1: 1.5 fold

## CCc1cc2c(c(CC)n1)CCC(=O)N2Cc1ccc(-c2ccccc2-c2nn[nH]n2)cc1 [ZD7155]
Ucp1; intraperitoneal injection 1 mg/kg/d for 14 days
  WAT beiging, increase of Ucp1: less than 2 fold

## CCn1cc(-c2cccc(C(F)(F)F)c2)c2sc(C(=N)NC3CCS(=O)(=O)CC3)cc2c1=O [I-BRD9, N′-(1,1-dioxothian-4-yl)-5-ethyl-4-oxo-7-[3-(trifluoromethyl)phenyl]thieno[3,2-c]pyridine-2-carboximidamide]
BRD9; BRD9 vs BET family
  selectivity over the BET family: > 700 fold
BRD9; BRD9 vs BRD7
  selectivity over the highly homologous BRD7: 200 fold
Rhabdoid tumor cells
  proliferation of rhabdoid tumor cells: synergistically inhibit

## C/C=C/Cn1cc(-c2cc(OC)c(C(=O)N3CCOCC3)cc2OC)c2cc[nH]c2c1=O [GNE-375]
[1]; EGFR mutant PC9 cancer cells
  drug resistance development: prevent the drug resistance development
[1]; PC9 study
  cell viability: little effects
  expression of ALDH1A1: decreases
  global gene expression: little effects

## COc1ccc(Br)cc1/C=C1\SC(=O)N(Cc2ccc(C)cc2)C1=O [GQ-16]
Ucp1; oral administration 40 mg/kg/d, for 14 days
  WAT beiging, increase of Ucp1: 5 fold

## CC[C@H](CO)Nc1nc(NCc2ccccc2)c2ncn(C(C)C)c2n1 [Roscovitine]
Ucp1; intraperitoneal injection 50 mg/kg/d for 42 days
  WAT beiging: induced WAT beiging
